The test system of one test is Jurkat cells. The test is described as follows: IL-2 secretion assay in CD3/CD28-activated Jurkat cells (AlphaLISA). The conditions noted are these: Homo sapiens, CD3/CD28 T Cell Activator, 24 h, IL-2 AlphaLISA. It is filed as cell-based. The method, then: Certain compounds were also evaluated in an IL-2 secretion assay. On the day of the assay, a 16 point, 1:2 master serial dilution of each compound was prepared in Opti-MEM to span a final concentration range of 10 μM to 300 pM. Assays were set up in CORNING® tissue culture-treated 384-well microplates containing 60 nL of each dilution. […] 50,000 cells/well and added to the compound plates. After a short spin (1200 rpm for 1 min), the plates were incubated at 37° C. for 1 hour. The cells were activated by adding 15 μL of IMMUNOCULT™ Human CD3/CD28 T Cell Activator ([…] Technologies) diluted in Opti-MEM. […] The AiphaLISA signal was measured using an EnVision plate reader (PerkinElmer). EC50 values were determined by fitting the data to a standard 4-parameter logistic equation.
In general terms: In Alpha technology, singlet oxygen from a donor bead excites a nearby acceptor bead.

Another test concerns the target T1, Cbl-b (Homo sapiens, UniProt Q13191).
T1 construct: biotin (biotinylated)
The test can be described thus: Cbl-b probe displacement HTRF binding assay. Conditions: 0.4 nM biotinylated Cbl-b, 150 nM BODIPY probe. The method, then: The affinity with which compounds of the present dislcosure bind to Cbl-b was assessed using probe displacement homologous time resolved fluorescence (HTRF) assays. […] The assays were performed in assay buffer consisting of 20 mM Hepes, 150 mM NaCl, 0.01% Triton X-100, 0.5 mM TCEP, 0.01% BSA. On the day of the assay, a 20 point, 1:2 master serial dilution of each compound was prepared in DMSO to span a final concentration range of […] to 0 nM. Two hundred nanoliters of diluted compound was added to each well of a 384-well plate. Fifteen microliters of biotinylated-Cbl-b resuspended in assay buffer were added to each well and the plate incubated for 60 minutes at room temperature prior to addition of 5 μL of BODIPY™ probe in assay buffer. […] After a further 15 minutes of incubation at room temperature, 5 μl of Streptavidin-Terbium cryptate reagent at 5-fold final concentration was added to each well of the 384-well plate. Binding of a probe to Cbl-b results in an increase of HTRF signal. […] Percentage maximum activity in each test well was calculated based on DMSO (maximum activity, 0% displacement) and no protein control wells (baseline activity, 100% displacement). Binding affinity was determined from a dose response curve fitted using a standard four parameter fit equation.
(In general: TR-FRET usually uses a lanthanide donor and a delayed reading to cut background.)

Each structure is given as a SMILES string. Bounds are passed on as bounds.

T1 sequence (Q13191 whole entry, species assumed): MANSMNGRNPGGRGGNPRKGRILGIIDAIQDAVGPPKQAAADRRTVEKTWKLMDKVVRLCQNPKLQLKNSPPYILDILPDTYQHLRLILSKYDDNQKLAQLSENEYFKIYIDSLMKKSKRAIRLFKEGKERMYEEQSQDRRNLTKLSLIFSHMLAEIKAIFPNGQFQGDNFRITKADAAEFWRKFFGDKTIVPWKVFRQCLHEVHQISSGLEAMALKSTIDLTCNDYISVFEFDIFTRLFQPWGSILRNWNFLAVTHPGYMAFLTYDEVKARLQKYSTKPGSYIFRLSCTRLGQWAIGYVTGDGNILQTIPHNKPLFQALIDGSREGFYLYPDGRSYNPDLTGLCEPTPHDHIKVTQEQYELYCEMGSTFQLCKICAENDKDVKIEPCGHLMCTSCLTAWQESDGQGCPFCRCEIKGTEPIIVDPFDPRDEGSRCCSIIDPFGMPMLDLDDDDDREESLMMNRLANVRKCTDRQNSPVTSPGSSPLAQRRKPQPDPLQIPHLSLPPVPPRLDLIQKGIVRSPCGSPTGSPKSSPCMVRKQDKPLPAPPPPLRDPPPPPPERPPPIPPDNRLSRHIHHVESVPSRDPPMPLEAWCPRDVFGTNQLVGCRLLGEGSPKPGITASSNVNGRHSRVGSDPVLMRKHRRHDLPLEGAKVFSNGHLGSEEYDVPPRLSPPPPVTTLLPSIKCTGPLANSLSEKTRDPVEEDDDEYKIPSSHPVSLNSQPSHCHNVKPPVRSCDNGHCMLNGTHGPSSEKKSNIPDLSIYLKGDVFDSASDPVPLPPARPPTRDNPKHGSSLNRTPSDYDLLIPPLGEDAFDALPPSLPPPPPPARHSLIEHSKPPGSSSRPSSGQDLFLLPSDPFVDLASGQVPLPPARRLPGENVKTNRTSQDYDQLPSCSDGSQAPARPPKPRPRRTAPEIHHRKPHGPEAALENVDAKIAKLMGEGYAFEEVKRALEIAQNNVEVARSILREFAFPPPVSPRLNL

Usually EC50 stands for the concentration giving half of the maximal effect. Low values mean greater potency, high ones weaker potency. One may read the IC50 as the concentration that inhibits the measured activity by half. A high value points to weaker potency in that assay. Take `CC1CC(c2cccc(-n3cnc4cc(CN5CCC[C@H](C)C5)[nH]c4c3=O)c2)(c2nncn2C)C1` (mixture of isomers) [Example 119, 6—{[(3S)-3-Methylpiperidin-1-yl]methyl}-3-{3-[(1R,3S)-3-methyl-1-(4-methyl-4H-1,2,4-triazol-3-yl)cyclobutyl]phenyl}-3H,4H,5H-pyrrolo[3,2-d]pyrimidin-4-one]: the EC50 in the test with Jurkat cells was under 100 nM. Besides, at Cbl-b, the IC50 is under 100 nM.
For `CC1CC(c2cccc(-n3cc(C4CC4)c4c(-c5cnn(C)c5)c[nH]c4c3=O)c2)(c2nncn2C)C1` (mixture of isomers) [Example 131, 4-Cyclopropyl-3-(1-methyl-1H-pyrazol-4-yl)-6-{3-[(1R,3S)-3-methyl-1-(4-methyl-4H-1,2,4-triazol-3-yl)cyclobutyl]phenyl}-1H,6H,7H-pyrrolo[2,3-c]pyridin-7-one], in the test on Jurkat cells, the EC50 is over 5000 nM. The compound further displayed an IC50 on Cbl-b of under 100 nM.
Taken in the same sequence, the figures for `CC1CC(c2cccc(-n3cc(C4CC4)c4c(C#N)c(CN5CCC[C@H](C)C5)[nH]c4c3=O)c2)(c2nncn2C)C1` (mixture of isomers) [Example 134, 4-Cyclopropyl-2-{[(3S)-3-methylpiperidin-1-yl]methyl}-7-oxo-6-{3-[(1R,3S)-3-methyl-1-(4-methyl-4H-1,2,4-triazol-3-yl)cyclobutyl]phenyl}-1H,6H,7H-pyrrolo[2,3-c]pyridine-3-carbonitrile] were under 100 nM and under 100 nM.
The corresponding values for `CC1CC(c2cccc(-n3cc(C4CC4)c4c(S(C)(=O)=O)c(CN5CCC[C@H](C)C5)[nH]c4c3=O)c2)(c2nncn2C)C1` (mixture of isomers) [Example 135, 4-Cyclopropyl-3-methanesulfonyl-2-{[(3S)-3-methylpiperidin-1-yl]methyl}-6-{3-[(1R,3S)-3-methyl-1-(4-methyl-4H-1,2,4-triazol-3-yl)cyclobutyl]phenyl}-1H,6H,7H-pyrrolo[2,3-c]pyridin-7-one] are under 100 nM and under 100 nM.
The corresponding values for `CC1CC(c2cccc(-n3cc(C(=O)O)c4cn[nH]c4c3=O)c2)(c2nncn2C)C1` (mixture of isomers) [Example 141, 7-Oxo-6-{3-[(1R,3S)-3-methyl-1-(4-methyl-4H-1,2,4-triazol-3-yl)cyclobutyl]phenyl}-1H,6H,7H-pyrazolo[3,4-c]pyridine-4-carboxylic acid] are over 5000 nM and 1000 to 5000 nM.
Turning to `CC1CC(c2cccc(-n3cnc4c(C(F)(F)F)c(CN5CCC[C@H](C)C5)[nH]c4c3=O)c2)(c2nncn2C)C1` (mixture of isomers) [Example 143, 6—{[(3S)-3-Methylpiperidin-1-yl]methyl}-3-{3-[(1R,3S)-3-methyl-1-(4-methyl-4H-1,2,4-triazol-3-yl)cyclobutyl]phenyl}-7-(trifluoromethyl)-3H,4H,5H-pyrrolo[3,2-d]pyrimidin-4-one], the half-maximal effective concentration (EC50) in the test with Jurkat cells was in the range of 100 to 1000 nM. The same compound returned an IC50 at Cbl-b of under 100 nM.
The compound `C[C@H]1CCCN(Cc2cc3c(C4CC4)cn(-c4cccc([C@]5(c6nncn6C)C[C@@H](C)C5)c4)c(=O)c3[nH]2)C1` [Example 3, 4-cyclopropyl-6-[3-[3-methyl-1-(4-methyl-1,2,4-triazol-3-yl)cyclobutyl]phenyl]-2-[[(3S)-3-methylpiperidin-1-yl]methyl]-1H-pyrrolo[2,3-c]pyridin-7-one] yielded an EC50 in the test with Jurkat cells of under 100 nM.
With `Cn1cnnc1[C@]1(c2cccc(-n3cc(C4CC4)c4c(C(F)(F)F)c[nH]c4c3=O)c2)C[C@H](C)C1` [Example 18, 4-Cyclopropyl-6-{3-[(1r,3s)-3-methyl-1-(4-methyl-4H-1,2,4-triazol-3-yl)cyclobutyl]phenyl}-3-(trifluoromethyl)-1H,6H,7H-pyrrolo[2,3-c]pyridin-7-one], the IC50 on Cbl-b lay within 100 to 1000 nM.
Still for that read-out and setting: for `Cc1cn(-c2cccc([C@]3(c4nncn4C)C[C@@H](C)C3)c2)c(=O)c2[nH]ccc12` [Example 29, 4-methyl-6-{3-[(1r,3s)-3-methyl-1-(4-methyl-4H-1,2,4-triazol-3-yl)cyclobutyl]phenyl}-1H,6H,7H-pyrrolo[2,3-c]pyridin-7-one] the value was 100 to 1000 nM.
On the same count and under the same terms, for `CN1CCC(c2cc3c(C4CC4)cn(-c4cccc([C@]5(c6nncn6C)C[C@@H](C)C5)c4)c(=O)c3[nH]2)CC1` [Example 33, 4-cyclopropyl-2-(1-methylpiperidin-4-yl)-6-{3-[(1r,3s)-3-methyl-1-(4-methyl-4H-1,2,4-triazol-3-yl)cyclobutyl]phenyl}-1H,6H,7H-pyrrolo[2,3-c]pyridin-7-one] the value was 100 to 1000 nM; for `CC1CC(c2cccc(-n3cc(C4CC4)c4cc(CN5CCCC6CC65)[nH]c4c3=O)c2)(c2nncn2C)C1` (centres unmarked) [Example 44, 2-({2-azabicyclo[4.1.0]heptan-2-yl}methyl)-4-cyclopropyl-6-{3-[3-methyl-1-(4-methyl-4H-1,2,4-triazol-3-yl)cyclobutyl]phenyl}-1H,6H,7H-pyrrolo[2,3-c]pyridin-7-one], under 100 nM.
With `CC1CC(c2cccc(-n3cc(C4CC4)c4cc(CN5CCC[C@H](C(F)(F)F)C5)[nH]c4c3=O)c2)(c2nncn2C)C1` (some centres unmarked) [Example 48, 4-cyclopropyl-6-{3-[3-methyl-1-(4-methyl-4H-1,2,4-triazol-3-yl)cyclobutyl]phenyl}-2-{[(3S′)-3-(trifluoromethyl)piperidin-1-yl]methyl}-1H,6H,7H-pyrrolo[2,3-c]pyridin-7-one], the IC50 on Cbl-b is under 100 nM.
Same read-out and setting: the value for `CC1CC(c2cccc(-n3cc(C4CC4)c4cc(CN5CC6CC(C5)O6)[nH]c4c3=O)c2)(c2nncn2C)C1` (centres unmarked) [Example 53, 4-cyclopropyl-6-{3-[3-methyl-1-(4-methyl-4H-1,2,4-triazol-3-yl)cyclobutyl]phenyl}-2-({6-oxa-3-azabicyclo[3.1.1]heptan-3-yl}methyl)-1H,6H,7H-pyrrolo[2,3-c]pyridin-7-one] was under 100 nM.
Same read-out and setting: the value for `Cn1cnnc1C1(c2cccc(-n3cc(C4CC4)c4cc(CNC5CCC(F)(F)C5)[nH]c4c3=O)c2)CC(F)(F)C1` (centres unmarked) [Example 80, 4-cyclopropyl-6-{3-[3,3-difluoro-1-(4-methyl-4H-1,2,4-triazol-3-yl)cyclobutyl]phenyl}-2-{[(3,3-difluorocyclopentyl)amino]methyl}-1H,6H,7H-pyrrolo[2,3-c]pyridin-7-one] was under 100 nM.
The same measure, in the same setting: the value for `Cn1cnnc1C1(c2cccc(-n3cc(C4CC4)c4cc(CNC5(C)CC(F)(F)C5)[nH]c4c3=O)c2)CC(F)(F)C1` [Example 81, 4-cyclopropyl-6-{3-[3,3-difluoro-1-(4-methyl-4H-1,2,4-triazol-3-yl)cyclobutyl]phenyl}-2-{[(3,3-difluoro-1-methylcyclobutyl)amino]methyl}-1H,6H,7H-pyrrolo[2,3-c]pyridin-7-one] was under 100 nM.
The compound `C[C@H]1CCCN(Cc2cc3c(C4CC4)cn(-c4cccc([C@]5(c6nncn6C)C[C@H](O)C5)c4)c(=O)c3[nH]2)C1` [Example 99, trans-4-cyclopropyl-6-[3-[3-hydroxy-1-(4-methyl-1,2,4-triazol-3-yl)cyclobutyl]phenyl]-2-[[(3S)-3-methylpiperidin-1-yl]methyl]-1H-pyrrolo[2,3-c]pyridin-7-one] had an EC50 in the test on Jurkat cells of 1000 to 5000 nM.
Compound `CC1CC(c2cccc(-n3nc(C4CC4)c4cc[nH]c4c3=O)c2)(c2nncn2C)C1` (centres unmarked) [Example 116, 4-cyclopropyl-6-{3-[3-methyl-1-(4-methyl-4H-1,2,4-triazol-3-yl)cyclobutyl]phenyl}-1H,6H,7H-pyrrolo[2,3-d]pyridazin-7-one] had an IC50 on Cbl-b of 1000 to 5000 nM.
In turn, `Cn1cnnc1[C@]1(c2cccc(-n3cc(C(F)(F)F)c4c(S(C)(=O)=O)c[nH]c4c3=O)c2)C[C@H](C)C1` [Example 138, 3-Methanesulfonyl-6-{3-[(1R,3S)-3-methyl-1-(4-methyl-4H-1,2,4-triazol-3-yl)cyclobutyl]phenyl}-4-(trifluoromethyl)-1H,6H,7H-pyrrolo[2,3-c]pyridin-7-one] came in with an IC50 on Cbl-b of under 100 nM.
Take `C[C@H]1CCCN(Cc2cc3ncn(-c4cccc([C@]5(c6nncn6C(F)F)C[C@H](OC(F)F)C5)c4)c(=O)c3[nH]2)C1` [Example 153, 2—{[(S)-3-methyl-1-piperidyl]methyl}-6-(m-{(1r,3S)-3-difluoromethoxy-1-[4-(difluoromethyl)-4H-1,2,4-triazol-3-yl]cyclobutyl}phenyl)-1,6-dihydro-1,4,6-triaza-7-indenone]: the IC50 on Cbl-b is under 100 nM.
At Cbl-b, `CC(c1ccnc(-n2cc(C3CC3)c3cc(CN4CCC[C@H](C)C4)[nH]c3c2=O)c1)c1nncn1C` (stereo partly drawn) [Example 157, 2—{[(S)-3-methyl-1-piperidyl]methyl}-4-cyclopropyl-6-{4-[1-(4-methyl-4H-1,2,4-triazol-3-yl)ethyl]-2-pyridyl}-1,6-dihydro-1,6-diaza-7-indenone] yielded an IC50 of under 100 nM.

Values taken from patent US20260028336A1 (Arcus Biosciences, Inc., priority 2022, published 2026).
